Publication PMC3742835, “Powerful Inhibition of Experimental Human Pancreatic Cancers by Receptor Targeted Cytotoxic LH-RH analog AEZS-108” (Oncotarget, 2013)

Tests used:
[1] = Experiment 3: body and organ weights of mice; assay type: in vivo; details: Experiment 3, nude mice with CFPAC-1; iv
Text: (§1) Control and treatment groups were then selected at random.

Panc-1 cancers [2] = assay: Human Cancer Pathway Finder PCR Array, Panc-1 tumors; assay type: in vivo, human (xenograft in nude mice)
Text: (§2) After isolating total RNA and protein from tumor samples from experiments 2, 3 and 4 by using the NucleoSpin kit (Macherey-Nagel, Bethlehem, PA, USA), the Human Cancer Pathway Finder Superarray and the Human Apoptosis RT Profiler PCR Array (Qiagen Inc. Valencia, CA, USA) were used to analyze 3 representative samples from each group for mRNA levels of genes related to cell adhesion, apoptosis, cell cycle, angiogenesis, signal transduction, invasion and metastasis. Quality control of RNA samples, synthesis of cDNA and RT-PCR arrays were performed as described. Gene expression data were examined using Excel based PCR Array Data Analysis Software provided by Qiagen; fold-changes in gene expression were calculated using the ΔΔCt method and five housekeeping genes (B2M, HPRT1, RPL13A, GAPDH, and ACTB) were used for normalization of the results.

Panc-1 cancers [3] = assay: Experiment 1: Panc-1 tumor growth in nude mice; assay type: in vivo, human (xenograft in nude mice); details: AN-152 6.9 μmol/kg, DOX 2.5 μmol/kg
Procedure: as §1
(§3) In Experiment 1, nude mice with Panc-1 tumors were treated iv. on days 1, 8. […] There were 8 animals in each group. The experiment was terminated on day 82.

CFPAC-1 cancers [4] = assay: Human Apoptosis RT Profiler PCR Array, CFPAC-1; assay type: in vivo, human (xenograft in nude mice)
Text: as §2

CFPAC-1 cancers [5] = assay: Experiment 3: CFPAC-1 tumor growth in nude mice
Procedure: Chemicals, unless stated otherwise, were purchased from Sigma (St. Louis, MO).
Female athymic nude mice (Ncr nu/nu) were obtained from the National Cancer Institute (Frederick Cancer Research and Development Center, Frederick, MD), Charles River Laboratories International, Inc. (Durham, NC) and Harlan Laboratories (Tampa, FL) and maintained under pathogen-limited conditions. […] To produce tumor donor animals, 10^6 cells of each line were injected subcutaneously into 3 nude mice and grown until well-developed tumors were grown. The resulting tumors were removed, minced and 2 mm^3 pieces of tumor tissue were transplanted subcutaneously into each flank area of the experimental nude mice. When the tumors became measurable, the mice were divided into groups with nearly equal average tumor sizes. Control and treatment groups were then selected at random.
The compounds were given iv. on days 1, 5, 8, 12, 15 and 30. There were 8 animals per group, and the experiment lasted to the 61st day of the treatment period.
One-way ANOVA (Sigmaplot-11 software; Jandel Scientific, San Raphael, CA) was used for statistical evaluation of the data, and the groups were compared using Dunnett's method.

[6] = tested on: three tumor lines (Panc-1, SW-1990, CFPAC-1); assay: Human Cancer Pathway Finder PCR Array, three tumor lines together; assay type: in vivo, human (xenograft in nude mice)
Text: as §2

Panc-1 cancers [7] = assay: Human Apoptosis RT Profiler PCR Array, Panc-1; assay type: in vivo, human (xenograft in nude mice)
Text: as §2

[8] = Experiment 1: body and organ weights of mice; assay type: in vivo; details: Experiment 1, nude mice with Panc-1; AN-152 6.9 μmol/kg, DOX 2.5 μmol/kg iv
Procedure: as §1, §3

SW-1990 tumors [9] = assay: Human Apoptosis RT Profiler PCR Array, SW-1990; assay type: in vivo, human (xenograft in nude mice)
Text: as §2

SW-1990 tumors [10] = assay: Human Cancer Pathway Finder PCR Array, SW-1990 tumors; assay type: in vivo, human (xenograft in nude mice)
Text: as §2

CFPAC-1 cancers [11] = assay: Human Cancer Pathway Finder PCR Array, CFPAC-1 tumors; assay type: in vivo, human (xenograft in nude mice)
Text: as §2

SW-1990 cancers = assay: Experiment 2: SW-1990 tumor growth in nude mice; assay type: in vivo, human (xenograft in nude mice); details: for Tumor volume (final): control 3464±838; for Tumor volume (final) / Tumor weights, solid tumor part: AN-152 and DOX P<0.05 vs. control; for Tumor weights, tumors with cysts: control 3729±921, AN-152 P<0.05 vs. control; for Tumor weights, solid tumor part: cut, fluid released, control 2473±636
Procedure: as §1
All compounds were administered iv.(at 6.9 μmol/kg) once weekly for 7 weeks. There were 10 animals per group. The experiment was terminated 65 days after the first treatment.

[12] = tested on: nitrosamine-induced pancreatic cancers; details: hamsters; cited from earlier work
Text: Receptors for various peptide hormones are present in pancreatic cancers and these receptors can be utilized for both diagnostic and therapeutic purposes.. […] [15, 21] however, their function and importance is still unclear. The combined detection of mRNA for both LH-RH and LH-RH receptor in rat pancreatic cancer lines raised the possibility of an autocrine/paracrine role of LH-RH in these tumors. The findings that both estrogen and androgen receptors are likewise expressed in pancreati ...

[13] = tested on: binding sites for LH-RH in nitrosamine-induced pancreatic cancers in hamsters; design: method as in PMID 15350601; details: cited from earlier work
[14] = tested on: advanced pancreatic cancers; details: cited from earlier work
Text: Pancreatic carcinoma is the 9th most common human cancer in the Western world, including the USA, but it is the fourth leading cause of cancer death in both males and females. Its incidence has increased in the white population by about 1% per year between 1999 through 2008. Ductal carcinomas of the pancreas are very aggressive tumors, and because of the concealed location of the gland, they are mostly detected in late stages of development when surgical removal is not useful. Thus, the 5-year survival rate is below 5% and the median survival time after diagnosis is less than 6 mo ...

[15] = SW-1990, 6.9 μmol/kg iv once weekly for 7 weeks, 10 animals/group, day 65, means ± SE

## COc1cccc2c1C(=O)c1c(O)c3c(c(O)c1C2=O)C[C@@](O)(C(=O)CO)C[C@@H]3O[C@H]1C[C@H](N)[C@H](O)[C@H](C)O1 [DOX, doxorubicin]
[1]
  Body weights: the lowest in the group receiving DOX, but the differences from control were statistically not significant
  Ovarian weights: reduced
Panc-1 cancers [2]
  Expression of cell cycle control and DNA damage repair genes: altered in both directions
Panc-1 cancers [2]; treated vs control tumors
  Expression of genes associated with adhesion: decreased
Panc-1 cancers [3]; Panc-1, iv days 1, 8, 15, 22, 33, 61, 8 animals/group, day 82, means ± SE, control 2040±1357, AN-152 P<0.05 vs. control
  Tumor volume (final): 849±363 mm3
Panc-1 cancers [3]; Panc-1 in nude mice, iv
  Growth inhibition (in words): only a moderate but not significant inhibitory effect
CFPAC-1 cancers [4]
  Expression of anti-apoptotic genes: decreased
CFPAC-1 cancers [4]; several genes
  Expression of pro-apoptotic genes: decreased
CFPAC-1 cancers [5]; iv days 1, 5, 8, 12, 15 and 30
  Tumor volume (in words): moderate but not significant decrease
CFPAC-1 cancers [5]; iv days 1, 5, 8, 12, 15 and 30, 8 animals/group, day 61, means ± SE, control 2502±769, AN-152 P<0.05 vs. control
  Tumor volume (final): 1063±518 mm3
[6]; all three tumor lines, treated vs control tumors
  Expression of genes related to invasion and metastasis: causing the stronger increases
[6]; three tumor lines
  TIMP3 expression: strongly increased
[6]; three tumor lines, treated vs control tumors
  Expression of genes related to signal transduction molecules and transcription factors: caused considerable increases or decreases in some
[6]; three tumors, Cancer Pathway Finder array
  Expression of apoptosis-associated genes: variable in the three tumors after both treatments
Panc-1 cancers [7]
  Expression of anti-apoptotic genes: mostly increased
Panc-1 cancers [7]; several genes
  Expression of pro-apoptotic genes: increased
[8]
  Effect on body and organ weights: Neither treatment had an effect on body and organ weights of the mice
SW-1990 tumors [9]
  Expression of anti-apoptotic genes: mostly increased
SW-1990 tumors [9]; several genes
  Expression of pro-apoptotic genes: changed in both directions
SW-1990 tumors [10]
  Expression of cell cycle control and DNA damage repair genes: altered in both directions
SW-1990 tumors [10]; treated vs control tumors
  Expression of genes associated with adhesion: changed in both directions
CFPAC-1 cancers [11]
  Expression of cell cycle control and DNA damage repair genes: only decreases
CFPAC-1 cancers [11]; treated vs control tumors
  Expression of genes associated with adhesion: decreased
SW-1990 cancers; SW-1990, 6.9 μmol/kg iv once weekly for 7 weeks
  Solid tumor weights (in words): reduced
SW-1990 cancers; [15]
  Tumor volume (final): 1213±381a mm3
  Tumor weights, tumors with cysts: 1496 ± 466 mg
  Tumor weights, solid tumor part: 585 ± 141 mg
SW-1990 cancers; SW-1990 in nude mice
  Growth inhibition (in words): inhibitory effect on growth

## cetrorelix
[12]
  Growth inhibition of nitrosamine-induced pancreatic cancers: inhibits growth

## LH-RH: hypothalamic peptide hormone
[13]
  Affinity of binding sites for LH-RH: moderate-affinity

## Nc1ccn([C@@H]2O[C@H](CO)[C@@H](O)C2(F)F)c(=O)n1 [gemcitabine]
[14]; gemcitabine alone or in combination with 5-fluorouracil, radiation or erlotinib, advanced pancreatic cancers
  Clinical efficacy: minimal palliation

## FOLFIRINOX
[14]; human, in vivo
  Toxicity: highly toxic

## D-Trp^6LH-RH
[12]
  Growth inhibition of nitrosamine-induced pancreatic cancers: inhibits growth
SW-1990 cancers; SW-1990, 6.9 μmol/kg iv once weekly for 7 weeks, 10 animals/group, day 65, means ± SE, control 1.56±0.12, AN-152 P<0.05 vs. all other groups
  Cystic/solid tumor (weight ratio): 1.56±0.11
SW-1990 cancers; [15]
  Tumor volume (final): 2791±646 mm3
  Tumor weights, tumors with cysts: 3107 ± 696 mg
  Tumor weights, solid tumor part: 1862 ± 361 mg
